According to ChEMBL document CHEMBL1147001, “Synthesis and antibacterial activity of novel oxazolidinones bearing N-hydroxyacetamidine substituent” (2006):
≈ marks a conversion by molar mass, not a printed value.

Assays:
Type in all cases: functional
Staphylococcus aureus [1] = experiment: Antibacterial activity against methicillin-resistant Staphylococcus aureus DRCC 019
Staphylococcus aureus [2] = experiment: Antibacterial activity against methicillin-susceptible Staphylococcus aureus DRCC 035
Enterococcus faecalis [3] = experiment: Antibacterial activity against vancomycin-susceptible Enterococcus faecalis DRCC 034
Enterococcus faecalis [4] = experiment: Antibacterial activity against vancomycin-resistant Enterococcus faecalis DRCC 154
Haemophilus influenzae = experiment: Antibacterial activity against beta lactamase negative Haemophilus influenzae DRCC 433
Enterococcus faecalis [5] = experiment: Antibacterial activity against vancomycin-resistant Enterococcus faecalis DRCC 153
Staphylococcus aureus [6] = experiment: Antibacterial activity against methicillin-resistant Staphylococcus aureus DRCC 446
Moraxella catarrhalis = experiment: Antibacterial activity against beta lactamase negative Moraxella catarrhalis DRCC 300
Staphylococcus aureus [7] = experiment: Efficacy against po dosed mouse infected with Staphylococcus aureus ATCC 29213

Compound | MIC (Staphylococcus aureus [1]) | MIC (Staphylococcus aureus [2]) | MIC (Enterococcus faecalis [3]) | MIC (Enterococcus faecalis [4]) | MIC (Haemophilus influenzae) | MIC (Enterococcus faecalis [5]) | MIC (Staphylococcus aureus [6]) | MIC (Moraxella catarrhalis) | ED50 (Staphylococcus aureus [7])
C/C(S)=N/C[C@H]1CN(c2ccc(N3CCN(CC(=N)NO)CC3)c(F)c2)C(=O)O1 | 1 µg/mL (≈ 2.36 µM) | 2 µg/mL (≈ 4.71 µM) | 1 µg/mL (≈ 2.36 µM) | 1 µg/mL (≈ 2.36 µM) | 4 µg/mL (≈ 9.42 µM) | 1 µg/mL (≈ 2.36 µM) | 1 µg/mL (≈ 2.36 µM) |  | 
N/C(CN1CCN(c2ccc(N3C[C@H](CNC(=O)C(F)F)OC3=O)cc2F)CC1)=N\O | 4 µg/mL (≈ 9 µM) | 4 µg/mL (≈ 9 µM) | 4 µg/mL (≈ 9 µM) | 4 µg/mL (≈ 9 µM) | 4 µg/mL (≈ 9 µM) | 2 µg/mL (≈ 4.5 µM) | 4 µg/mL (≈ 9 µM) | 8 µg/mL (≈ 18 µM) | 12.1 mg/kg/day
COC(=O)NC[C@H]1CN(c2cc(F)c(N3CCN(CC(=N)NO)CC3)c(F)c2)C(=O)O1 | 1 µg/mL (≈ 2.26 µM) | 2 µg/mL (≈ 4.52 µM) | 1 µg/mL (≈ 2.26 µM) | 2 µg/mL (≈ 4.52 µM) | 8 µg/mL (≈ 18.1 µM) | 1 µg/mL (≈ 2.26 µM) | 1 µg/mL (≈ 2.26 µM) | 2 µg/mL (≈ 4.52 µM) | 32.2 mg/kg/day
C/C(S)=N/C[C@H]1CN(c2cc(F)c(N3CCN(CC(=N)NO)CC3)c(F)c2)C(=O)O1 | 0.25 µg/mL (≈ 0.565 µM) | 1 µg/mL (≈ 2.26 µM) | 0.5 µg/mL (≈ 1.13 µM) | 0.25 µg/mL (≈ 0.565 µM) | 4 µg/mL (≈ 9.04 µM) | 0.5 µg/mL (≈ 1.13 µM) | 0.25 µg/mL (≈ 0.565 µM) | 0.5 µg/mL (≈ 1.13 µM) | 22.1 mg/kg/day
CO/C(S)=N/C[C@H]1CN(c2ccc(N3CCN(CC(=N)NO)CC3)c(F)c2)C(=O)O1 | 0.5 µg/mL (≈ 1.14 µM) | 1 µg/mL (≈ 2.27 µM) | 0.5 µg/mL (≈ 1.14 µM) | 0.5 µg/mL (≈ 1.14 µM) | 8 µg/mL (≈ 18.2 µM) | 0.5 µg/mL (≈ 1.14 µM) | 0.5 µg/mL (≈ 1.14 µM) | 8 µg/mL (≈ 18.2 µM) | 21.2 mg/kg/day
N/C(CN1CCN(c2ccc(N3C[C@H](COc4ccon4)OC3=O)cc2F)CC1)=N\O | 4 µg/mL (≈ 9.21 µM) | 16 µg/mL (≈ 36.8 µM) | 16 µg/mL (≈ 36.8 µM) | 16 µg/mL (≈ 36.8 µM) | 256 µg/mL (≈ 589 µM) | 8 µg/mL (≈ 18.4 µM) | 4 µg/mL (≈ 9.21 µM) | 8 µg/mL (≈ 18.4 µM) | 
N/C(CN1CCN(c2c(F)cc(N3C[C@H](CNC(=O)C(F)F)OC3=O)cc2F)CC1)=N\O | 1 µg/mL (≈ 2.16 µM) | 2 µg/mL (≈ 4.33 µM) | 1 µg/mL (≈ 2.16 µM) | 1 µg/mL (≈ 2.16 µM) | 4 µg/mL (≈ 8.65 µM) | 0.5 µg/mL (≈ 1.08 µM) | 1 µg/mL (≈ 2.16 µM) | 2 µg/mL (≈ 4.33 µM) | 18.3 mg/kg/day
CC(=O)NC[C@H]1CN(c2ccc(N3CCN(CC(=N)NO)CC3)c(F)c2)C(=O)O1 | 4 µg/mL (≈ 9.79 µM) | 16 µg/mL (≈ 39.2 µM) | 8 µg/mL (≈ 19.6 µM) | 8 µg/mL (≈ 19.6 µM) | 8 µg/mL (≈ 19.6 µM) | 2 µg/mL (≈ 4.9 µM) | 4 µg/mL (≈ 9.79 µM) | 8 µg/mL (≈ 19.6 µM) | 
CO/C(S)=N/C[C@H]1CN(c2cc(F)c(N3CCN(CC(=N)NO)CC3)c(F)c2)C(=O)O1 | 0.25 µg/mL (≈ 0.545 µM) | 0.5 µg/mL (≈ 1.09 µM) | 0.25 µg/mL (≈ 0.545 µM) | 0.25 µg/mL (≈ 0.545 µM) | 4 µg/mL (≈ 8.72 µM) | 0.25 µg/mL (≈ 0.545 µM) | 0.25 µg/mL (≈ 0.545 µM) | 0.5 µg/mL (≈ 1.09 µM) | 32.2 mg/kg/day
N/C(CN1CCN(c2c(F)cc(N3C[C@H](COc4ccon4)OC3=O)cc2F)CC1)=N\O | 2 µg/mL (≈ 4.42 µM) | 4 µg/mL (≈ 8.84 µM) | 4 µg/mL (≈ 8.84 µM) | 4 µg/mL (≈ 8.84 µM) | > 32 µg/mL | 2 µg/mL (≈ 4.42 µM) | 2 µg/mL (≈ 4.42 µM) | 16 µg/mL (≈ 35.4 µM) | 
COC(=O)NC[C@H]1CN(c2ccc(N3CCN(CC(=N)NO)CC3)c(F)c2)C(=O)O1 | 16 µg/mL (≈ 37.7 µM) | 8 µg/mL (≈ 18.8 µM) | 4 µg/mL (≈ 9.42 µM) | 16 µg/mL (≈ 37.7 µM) | 32 µg/mL (≈ 75.4 µM) | 4 µg/mL (≈ 9.42 µM) | 16 µg/mL (≈ 37.7 µM) | > 16 µg/mL | 
CC(=O)NC[C@H]1CN(c2cc(F)c(N3CCN(CC(=N)NO)CC3)c(F)c2)C(=O)O1 | 1 µg/mL (≈ 2.35 µM) | 2 µg/mL (≈ 4.69 µM) | 1 µg/mL (≈ 2.35 µM) | 1 µg/mL (≈ 2.35 µM) | 4 µg/mL (≈ 9.38 µM) | 1 µg/mL (≈ 2.35 µM) | 1 µg/mL (≈ 2.35 µM) | 4 µg/mL (≈ 9.38 µM) | 
CC(=O)NC[C@H]1CN(c2ccc(N3CCOCC3)c(F)c2)C(=O)O1 [LINEZOLID] | 1 µg/mL (≈ 2.96 µM) |  |  |  | 8 µg/mL (≈ 23.7 µM) |  |  | 8 µg/mL (≈ 23.7 µM) | 5.3 mg/kg/day
